Columns and labels:
Test in all cases: relative viability (nuclei count vs DMSO), 5 days (fraction); higher = more cells survive
[1] = compound: C1=CC=C2C(=C1)N=C(S2)C(C#N)C3=NC(=NC=C3)NCCC4=CN=CC=C4 + CC(=O)c1c(C)c2cnc(Nc3ccc(N4CCNCC4)cn3)nc2n(C2CCCC2)c1=O [Palbociclib] (partner 0.5 µM)
Outline: (§1)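 The day after seeding in 1536-well plates, lung cancer cell lines were treated by pin tool with a single drug, or with a fixed anchor-drug dose together with five library-drug doses (not always all listed) in √10 steps. After 5 days, a combined fix-and-stain solution (final 0.05% Triton X-100, 1% formaldehyde, 1 ug/ml Hoechst) was added. Nuclei counted on 4× images gave relative viability as treated counts over vehicle counts, reported as the median of duplicate plates.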

NVP-TAE684 + Bortezomib = compound: COc1cc(N2CCC(N3CCN(C)CC3)CC2)ccc1Nc1ncc(Cl)c(Nc2ccccc2S(=O)(=O)C(C)C)n1 [NVP-TAE684] + CC(C)C[C@H](NC(=O)[C@H](Cc1ccccc1)NC(=O)c1cnccn1)B(O)O [Bortezomib] (partner 0.002 µM)
Outline: as §1

CUDC-101 + Bortezomib = compound: C#Cc1cccc(Nc2ncnc3cc(OC)c(OCCCCCCC(=O)NO)cc23)c1 [CUDC-101] + CC(C)C[C@H](NC(=O)[C@H](Cc1ccccc1)NC(=O)c1cnccn1)B(O)O [Bortezomib] (partner 0.002 µM)
Outline: as §1

NVP-TAE684 + Crizotinib = compound: COc1cc(N2CCC(N3CCN(C)CC3)CC2)ccc1Nc1ncc(Cl)c(Nc2ccccc2S(=O)(=O)C(C)C)n1 [NVP-TAE684] + C[C@@H](Oc1cc(-c2cnn(C3CCNCC3)c2)cnc1N)c1c(Cl)ccc(F)c1Cl [Crizotinib] (partner 1 µM)
Outline: as §1

UMC-11 was tested, and the relative viability ([1]; first compound 0.005 µM) was 0.377, the relative viability ([1]; first compound 0.01581 µM) was 0.32 and the relative viability ([1]; first compound 0.05 µM) was 0.294. It also gave a relative viability ([1]; first compound 0.1581 µM) of 0.346, a relative viability ([1]; first compound 0.5 µM) of 0.31 and a relative viability (NVP-TAE684 + Bortezomib; first compound 0.2 µM) of 0.642. The relative viability (NVP-TAE684 + Bortezomib; first compound 0.6325 µM) was 0.97, the relative viability (NVP-TAE684 + Bortezomib; first compound 2 µM) was 0.393 and the relative viability (CUDC-101 + Bortezomib; first compound 0.01 µM) was 0.918. It also gave a relative viability (CUDC-101 + Bortezomib; first compound 0.03162 µM) of 0.831, a relative viability (CUDC-101 + Bortezomib; first compound 0.1 µM) of 0.468 and a relative viability (CUDC-101 + Bortezomib; first compound 0.3162 µM) of 0.576. It also gave a relative viability (CUDC-101 + Bortezomib; first compound 1 µM) of 0.167, a relative viability (NVP-TAE684 + Crizotinib; first compound 0.2 µM) of 0.45 and a relative viability (NVP-TAE684 + Crizotinib; first compound 0.6325 µM) of 0.459. The relative viability (NVP-TAE684 + Crizotinib; first compound 2 µM) was 0.145.

Source: the supplement of paper PMC10307832
